The numbers were not newly measured in patent publication US20240335409A1, “SYSTEMS AND METHODS FOR DELIVERY OF PHENYLALANINE AND LACTATE” (Transdermal Biotechnology, Inc., priority 2022, published 2024), which cites them from elsewhere.

Bounds are passed on as bounds.

In series [1] the test system is mice.

As to `C[C@H](O)C(=O)N[C@@H](Cc1ccccc1)C(=O)O` [Lac-Phe, N-lactoyl-phenylalanine], the water solubility is above 2000 µM. The “effect on food intake and obesity” value in series [1] is “effectively reduce food intake and obesity”.
